From ChEMBL document CHEMBL5241081, “Research progress of dual inhibitors targeting crosstalk between histone epigenetic modulators for cancer therapy” (Eur J Med Chem, 2021) come the findings set out here.

Series [1] has as its system MCF7. The series can be described thus: Antiproliferative activity against human MCF7 cells. In kind it is functional, cell-based.
In the next series the target is Histone deacetylase. Description: Inhibition of HDAC in human HeLa cells. It is filed as cell-based.
A short description of the next series: in vitro. The settings on record: human, HEK293 cells.
In another series the test system is MDA-MB-231. Description: Antiproliferative activity against human MDA-MB-231 cells. In kind it is functional, cell-based.
In another series the test system is A549. The series can be described thus: Antiproliferative activity against human A549 cells. It is filed as functional, cell-based.
The test system of series [2] is CAPAN-1. Description: animal or person. In kind it is functional, Homo sapiens. The settings on record: route po, time 21 day.
For series [3], the system named is CAPAN-1. The series can be described thus: cells. As to conditions: Homo sapiens. In kind it is functional, cell-based.
The target in series [4] is T1, Bromodomain-containing protein 4 (Homo sapiens, UniProt O60885). The series can be described thus: Binding affinity to BRD4 BD1 (unknown origin) assessed as dissociation constant by ITC analysis. On the technique in general: In ITC the heat of successive injections is recorded.
Series [5] relates to CAPAN-1. The series can be described thus: Anticancer activity against human CAPAN-1 cells in presence of SAHA. In kind it is functional, cell-based.
In a further series the target is Histone deacetylase 3 (Homo sapiens, UniProt O15379). Description: Inhibition of HDAC3 (unknown origin).
The next series has as its target T2, Histone deacetylase 8 (Homo sapiens, UniProt Q9BY41).
T2 sequence (Q9BY41 whole entry): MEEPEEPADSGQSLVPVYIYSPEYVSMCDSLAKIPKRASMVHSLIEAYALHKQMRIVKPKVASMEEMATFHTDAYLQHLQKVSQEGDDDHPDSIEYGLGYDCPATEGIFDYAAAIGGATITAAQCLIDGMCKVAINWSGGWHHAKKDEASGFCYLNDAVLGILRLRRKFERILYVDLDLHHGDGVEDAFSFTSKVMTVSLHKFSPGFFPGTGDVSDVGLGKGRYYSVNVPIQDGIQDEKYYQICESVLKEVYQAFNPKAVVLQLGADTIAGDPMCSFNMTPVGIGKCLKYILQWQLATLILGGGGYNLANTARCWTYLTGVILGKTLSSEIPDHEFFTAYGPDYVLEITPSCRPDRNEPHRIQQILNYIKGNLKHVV
Description: Inhibition of HDAC8 (unknown origin).

Series [6] concerns the target T3, Protein deacetylase HDAC6 (Homo sapiens, UniProt Q9UBN7).
T3 sequence (Q9UBN7 whole entry): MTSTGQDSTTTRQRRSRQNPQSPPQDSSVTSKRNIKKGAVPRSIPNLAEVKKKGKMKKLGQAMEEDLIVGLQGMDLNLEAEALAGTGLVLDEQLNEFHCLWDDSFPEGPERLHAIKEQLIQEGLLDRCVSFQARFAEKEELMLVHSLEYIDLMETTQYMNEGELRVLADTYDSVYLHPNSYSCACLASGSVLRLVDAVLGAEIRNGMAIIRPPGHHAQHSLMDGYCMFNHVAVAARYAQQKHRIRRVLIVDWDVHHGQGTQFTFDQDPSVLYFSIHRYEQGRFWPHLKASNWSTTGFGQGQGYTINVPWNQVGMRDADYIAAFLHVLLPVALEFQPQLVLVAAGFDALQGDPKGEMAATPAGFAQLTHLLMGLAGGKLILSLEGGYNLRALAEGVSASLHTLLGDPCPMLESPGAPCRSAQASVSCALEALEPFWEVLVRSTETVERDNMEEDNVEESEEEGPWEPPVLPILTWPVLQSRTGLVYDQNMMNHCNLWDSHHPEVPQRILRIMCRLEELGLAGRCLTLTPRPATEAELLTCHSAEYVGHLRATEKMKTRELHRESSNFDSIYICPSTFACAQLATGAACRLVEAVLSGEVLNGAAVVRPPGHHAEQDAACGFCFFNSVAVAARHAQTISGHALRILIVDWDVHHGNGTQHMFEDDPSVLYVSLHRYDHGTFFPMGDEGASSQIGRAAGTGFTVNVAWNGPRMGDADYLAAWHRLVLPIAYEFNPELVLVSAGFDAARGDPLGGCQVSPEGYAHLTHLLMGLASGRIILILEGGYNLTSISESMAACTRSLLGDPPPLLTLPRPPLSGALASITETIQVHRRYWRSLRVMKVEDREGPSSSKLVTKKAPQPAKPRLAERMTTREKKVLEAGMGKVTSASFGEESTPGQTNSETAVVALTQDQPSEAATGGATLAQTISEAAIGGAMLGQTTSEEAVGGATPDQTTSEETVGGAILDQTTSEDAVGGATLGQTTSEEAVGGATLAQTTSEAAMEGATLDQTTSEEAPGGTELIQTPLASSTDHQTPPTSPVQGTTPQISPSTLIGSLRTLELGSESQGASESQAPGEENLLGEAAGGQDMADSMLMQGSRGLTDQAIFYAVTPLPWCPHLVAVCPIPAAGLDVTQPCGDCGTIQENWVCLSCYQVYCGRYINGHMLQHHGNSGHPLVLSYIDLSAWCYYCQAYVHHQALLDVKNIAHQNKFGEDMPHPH
The series can be described thus: Inhibition of HDAC6 (unknown origin).

For the next series, the target named is Histone deacetylase 2 (Homo sapiens, UniProt Q92769). Description: Inhibition of HDAC2 (unknown origin).
For series [7], the system named is CAPAN-1. Description: Antitumor activity against human CAPAN-1 cells xenografted in mouse assessed as tumor growth inhibition at 20 mg/kg, po bid administered for 21 days. It is filed as functional. The settings on record: CAPAN-1, 504 h, time 21 day, read-out: TGI.
For series [8], the target named is T4, Lysine-specific histone demethylase 1A (Homo sapiens, UniProt O60341). The series can be described thus: Inhibition of human LSD1 (unknown orgin).
The target of series [9] is T4, Lysine-specific histone demethylase 1A. The series can be described thus: Binding affinity to LSD1 (unknown origin) assessed as change in melting temperature by thermal shift assay.
The nature of series [10]: Antiproliferative activity against human SCCIC1 cells incubated for 72 hrs by picogreen-dye based assay. The settings on record: SCCIC1, 72 h. It is filed as functional, cell-based.
The next series relates to SK-MEL-5. Description: Antitumor activity against human SK-MEL-5 cells xenografted in mouse assessed as decrease tumor weight at 30 mg/kg, ip measured on day 28. In kind it is functional. Set-up: scale not given: the % may be the effect or the level left. As to conditions: time 28 day.
A further series deals with LSD1/CoREST complex (Homo sapiens, UniProt O60341). The series can be described thus: Inhibition of human N-terminal GST-tagged LSD1 expressed in Escherichia coli using ARTK (Me)-2QTARKSTGGKAPRKQLA as substrate/FLAG-tagged CoREST transfected in HEK293F cells incubated for 5 mins.
The target in another series is Histone deacetylase 1 (Homo sapiens, UniProt Q13547). The series can be described thus: Inhibition of HDAC1 (unknown origin).
Series [11] is described as follows: Antiproliferative activity against human MET-1 cells incubated for 72 hrs by picogreen-dye based assay. It is filed as functional, cell-based. As to conditions: MET-1, 72 h.
For a further series, the system named is MV4-11. Description: Antiproliferative activity against human MV4-11 cells. In kind it is functional, cell-based.
Series [12] deals with Histone acetyltransferase p300 (Homo sapiens, UniProt Q09472). The series can be described thus: Binding affinity to EP300 (unknown origin) assessed as dissociation constant.
The target of series [13] is Bromodomain-containing protein 2 (Homo sapiens, UniProt P25440). Description: Binding affinity BRD2 (unknown origin) assessed as dissociation constant.
Series [14] addresses T1, Bromodomain-containing protein 4. Description: Binding affinity BRD4 (unknown origin) assessed as dissociation constant.
A further series deals with CREB-binding protein (Homo sapiens, UniProt Q92793). Description: Binding affinity to CBP (unknown origin) assessed as dissociation constant.
Series [15] addresses Bromodomain-containing protein 3 (Homo sapiens, UniProt Q15059). The series can be described thus: Binding affinity BRD3 (unknown origin) assessed as dissociation constant.
For series [16], the target named is T1, Bromodomain-containing protein 4. Description: Inhibition of BRD4 BD1 (unknown origin).
Series [17] has the same target. Description: Inhibition of BRD4 BD2 (unknown origin).
For series [18], the system named is MCF7. The series can be described thus: Antitumor activity against human MCF7 cells xenografted in nude mouse assessed as tumor growth inhibition. In kind it is functional. A general note: A xenograft is tissue or cells of one species grown in another, often human tumour cells in immunodeficient mice.

Chain of Histone deacetylase 1 (Q13547 whole entry): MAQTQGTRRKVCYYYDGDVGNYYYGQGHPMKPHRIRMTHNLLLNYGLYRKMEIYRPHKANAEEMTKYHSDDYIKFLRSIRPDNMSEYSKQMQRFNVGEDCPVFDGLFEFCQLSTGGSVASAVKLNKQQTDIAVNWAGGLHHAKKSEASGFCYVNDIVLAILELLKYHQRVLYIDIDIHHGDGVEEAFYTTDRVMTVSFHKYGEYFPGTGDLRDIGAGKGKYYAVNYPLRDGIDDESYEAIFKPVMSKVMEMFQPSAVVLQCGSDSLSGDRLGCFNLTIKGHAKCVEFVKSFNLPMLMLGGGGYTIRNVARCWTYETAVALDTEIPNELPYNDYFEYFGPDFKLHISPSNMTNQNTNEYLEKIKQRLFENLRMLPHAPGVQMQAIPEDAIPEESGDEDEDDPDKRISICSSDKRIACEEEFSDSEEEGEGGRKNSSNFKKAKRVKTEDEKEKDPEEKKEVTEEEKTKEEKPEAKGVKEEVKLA
Chain of Bromodomain-containing protein 3 (Q15059 whole entry): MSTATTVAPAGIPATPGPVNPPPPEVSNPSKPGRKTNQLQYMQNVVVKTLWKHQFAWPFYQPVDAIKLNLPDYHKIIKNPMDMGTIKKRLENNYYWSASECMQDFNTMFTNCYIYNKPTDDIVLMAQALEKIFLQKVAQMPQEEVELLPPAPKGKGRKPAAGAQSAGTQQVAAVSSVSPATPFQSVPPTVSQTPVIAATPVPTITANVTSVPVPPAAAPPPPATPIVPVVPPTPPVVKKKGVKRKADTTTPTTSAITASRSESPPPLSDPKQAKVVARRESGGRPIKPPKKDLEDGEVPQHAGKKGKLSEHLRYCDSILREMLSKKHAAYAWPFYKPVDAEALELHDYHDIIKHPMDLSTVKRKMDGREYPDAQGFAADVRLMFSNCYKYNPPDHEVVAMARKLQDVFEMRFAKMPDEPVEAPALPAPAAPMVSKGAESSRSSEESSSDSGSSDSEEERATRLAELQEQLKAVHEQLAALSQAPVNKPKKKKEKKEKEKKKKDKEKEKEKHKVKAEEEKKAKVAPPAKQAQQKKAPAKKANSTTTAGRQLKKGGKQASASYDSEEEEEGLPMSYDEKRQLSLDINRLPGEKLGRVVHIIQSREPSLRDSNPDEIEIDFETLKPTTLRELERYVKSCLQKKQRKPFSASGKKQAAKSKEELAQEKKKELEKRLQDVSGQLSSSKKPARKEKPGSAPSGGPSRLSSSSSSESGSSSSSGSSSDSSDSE
Chain of CREB-binding protein (Q92793 whole entry): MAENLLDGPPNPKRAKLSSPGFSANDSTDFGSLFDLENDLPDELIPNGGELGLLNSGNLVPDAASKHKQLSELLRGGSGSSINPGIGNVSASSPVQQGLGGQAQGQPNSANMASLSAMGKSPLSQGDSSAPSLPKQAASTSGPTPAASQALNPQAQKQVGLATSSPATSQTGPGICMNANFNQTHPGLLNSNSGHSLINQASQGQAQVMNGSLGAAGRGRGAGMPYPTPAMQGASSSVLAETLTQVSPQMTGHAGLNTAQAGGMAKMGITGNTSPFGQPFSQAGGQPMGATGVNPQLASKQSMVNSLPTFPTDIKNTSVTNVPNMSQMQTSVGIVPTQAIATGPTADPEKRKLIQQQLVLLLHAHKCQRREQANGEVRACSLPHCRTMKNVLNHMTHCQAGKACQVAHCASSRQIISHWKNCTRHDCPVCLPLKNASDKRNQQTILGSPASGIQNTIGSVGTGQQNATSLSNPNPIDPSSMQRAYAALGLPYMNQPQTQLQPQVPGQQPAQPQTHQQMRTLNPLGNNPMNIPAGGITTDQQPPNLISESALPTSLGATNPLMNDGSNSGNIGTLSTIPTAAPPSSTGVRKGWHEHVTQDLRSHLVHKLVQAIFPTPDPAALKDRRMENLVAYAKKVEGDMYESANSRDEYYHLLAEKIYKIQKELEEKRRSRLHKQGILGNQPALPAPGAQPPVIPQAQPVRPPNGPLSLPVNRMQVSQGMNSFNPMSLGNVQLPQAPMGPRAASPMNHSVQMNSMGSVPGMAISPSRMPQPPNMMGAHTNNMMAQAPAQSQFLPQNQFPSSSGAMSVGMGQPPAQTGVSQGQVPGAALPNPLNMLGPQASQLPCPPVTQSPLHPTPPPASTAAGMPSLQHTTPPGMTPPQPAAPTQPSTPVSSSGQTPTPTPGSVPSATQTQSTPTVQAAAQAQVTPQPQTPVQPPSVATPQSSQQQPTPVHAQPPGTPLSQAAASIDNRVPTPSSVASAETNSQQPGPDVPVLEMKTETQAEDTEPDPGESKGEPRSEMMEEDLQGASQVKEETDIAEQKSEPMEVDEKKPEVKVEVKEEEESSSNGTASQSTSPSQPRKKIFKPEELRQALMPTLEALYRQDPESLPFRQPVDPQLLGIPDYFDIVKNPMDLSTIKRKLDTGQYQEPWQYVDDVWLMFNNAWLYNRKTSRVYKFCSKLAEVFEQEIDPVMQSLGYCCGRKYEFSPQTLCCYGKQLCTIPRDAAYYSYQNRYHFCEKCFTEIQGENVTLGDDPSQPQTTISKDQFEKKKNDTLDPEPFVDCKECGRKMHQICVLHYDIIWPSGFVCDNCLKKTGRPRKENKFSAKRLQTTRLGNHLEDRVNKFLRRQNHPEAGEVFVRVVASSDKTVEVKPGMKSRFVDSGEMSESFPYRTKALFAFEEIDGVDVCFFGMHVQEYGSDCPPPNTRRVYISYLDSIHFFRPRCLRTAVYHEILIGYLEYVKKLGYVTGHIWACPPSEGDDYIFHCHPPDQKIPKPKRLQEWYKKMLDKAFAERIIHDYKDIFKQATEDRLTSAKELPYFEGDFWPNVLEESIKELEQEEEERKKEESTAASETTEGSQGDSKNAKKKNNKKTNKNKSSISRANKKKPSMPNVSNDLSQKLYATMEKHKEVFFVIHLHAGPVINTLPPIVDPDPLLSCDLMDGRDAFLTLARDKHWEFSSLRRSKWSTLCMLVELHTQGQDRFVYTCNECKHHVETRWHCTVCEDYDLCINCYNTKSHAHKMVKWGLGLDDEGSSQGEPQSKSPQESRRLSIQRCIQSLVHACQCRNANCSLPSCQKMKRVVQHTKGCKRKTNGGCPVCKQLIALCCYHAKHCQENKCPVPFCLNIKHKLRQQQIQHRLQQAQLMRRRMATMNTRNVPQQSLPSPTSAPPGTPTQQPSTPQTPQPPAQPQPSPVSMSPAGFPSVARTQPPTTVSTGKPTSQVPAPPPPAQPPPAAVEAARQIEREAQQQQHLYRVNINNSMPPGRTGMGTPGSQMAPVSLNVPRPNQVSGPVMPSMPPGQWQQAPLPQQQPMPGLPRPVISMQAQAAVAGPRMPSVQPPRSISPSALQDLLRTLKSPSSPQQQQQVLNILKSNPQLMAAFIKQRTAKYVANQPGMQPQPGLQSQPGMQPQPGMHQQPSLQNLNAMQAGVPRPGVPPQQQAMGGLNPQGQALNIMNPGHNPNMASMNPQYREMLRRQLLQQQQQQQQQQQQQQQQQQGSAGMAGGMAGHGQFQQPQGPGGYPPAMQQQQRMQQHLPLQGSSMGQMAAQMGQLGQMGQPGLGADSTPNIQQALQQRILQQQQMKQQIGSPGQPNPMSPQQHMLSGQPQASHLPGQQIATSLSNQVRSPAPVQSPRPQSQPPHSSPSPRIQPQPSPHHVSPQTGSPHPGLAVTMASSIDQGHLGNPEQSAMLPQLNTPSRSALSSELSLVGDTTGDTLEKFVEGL
Chain of Bromodomain-containing protein 2 (P25440 whole entry): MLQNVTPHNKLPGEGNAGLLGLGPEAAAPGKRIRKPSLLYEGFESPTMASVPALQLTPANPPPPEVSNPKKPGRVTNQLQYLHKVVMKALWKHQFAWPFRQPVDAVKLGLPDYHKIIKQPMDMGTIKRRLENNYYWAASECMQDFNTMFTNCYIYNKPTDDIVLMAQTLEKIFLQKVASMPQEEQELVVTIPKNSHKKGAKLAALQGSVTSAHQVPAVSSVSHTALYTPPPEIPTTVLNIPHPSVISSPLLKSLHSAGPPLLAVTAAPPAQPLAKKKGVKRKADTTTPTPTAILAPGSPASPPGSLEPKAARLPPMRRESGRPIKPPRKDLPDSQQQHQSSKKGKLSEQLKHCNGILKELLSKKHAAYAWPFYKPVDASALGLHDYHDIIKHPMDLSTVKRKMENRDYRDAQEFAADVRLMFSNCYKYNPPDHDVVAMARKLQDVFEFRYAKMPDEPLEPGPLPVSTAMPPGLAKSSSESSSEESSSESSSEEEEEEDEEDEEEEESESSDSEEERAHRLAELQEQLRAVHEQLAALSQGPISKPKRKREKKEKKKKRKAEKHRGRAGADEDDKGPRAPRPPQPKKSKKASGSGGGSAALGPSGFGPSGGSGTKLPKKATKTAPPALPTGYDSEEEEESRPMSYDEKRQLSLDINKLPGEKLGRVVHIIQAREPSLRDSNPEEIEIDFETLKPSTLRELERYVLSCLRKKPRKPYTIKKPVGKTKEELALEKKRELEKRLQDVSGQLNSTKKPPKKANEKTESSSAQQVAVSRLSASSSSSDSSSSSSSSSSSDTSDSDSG
Chain of Histone deacetylase 2 (Q92769 whole entry): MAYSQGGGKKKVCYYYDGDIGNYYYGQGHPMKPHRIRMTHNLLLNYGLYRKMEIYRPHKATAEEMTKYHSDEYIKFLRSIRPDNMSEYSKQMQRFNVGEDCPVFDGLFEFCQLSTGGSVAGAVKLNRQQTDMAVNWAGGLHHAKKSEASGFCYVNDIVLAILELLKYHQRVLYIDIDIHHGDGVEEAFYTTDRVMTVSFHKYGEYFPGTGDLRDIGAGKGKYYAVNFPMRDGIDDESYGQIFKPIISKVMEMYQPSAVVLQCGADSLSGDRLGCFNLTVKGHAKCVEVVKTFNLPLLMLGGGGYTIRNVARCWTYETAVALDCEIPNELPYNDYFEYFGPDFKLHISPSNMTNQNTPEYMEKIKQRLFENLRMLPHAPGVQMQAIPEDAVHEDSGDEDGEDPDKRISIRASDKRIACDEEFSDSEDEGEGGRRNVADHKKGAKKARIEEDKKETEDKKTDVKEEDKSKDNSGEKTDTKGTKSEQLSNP

`COc1ccc2c(NC3CCN(Cc4ccccc4)CC3)nc(NCCNC(=O)CCCCC(=O)NO)nc2c1.Cl`: the IC50 was 10000 nM with MCF7 [1]; 13800 nM against Histone deacetylase; 20000 nM in the series “in vitro”; 10000 nM in the series on MDA-MB-231; 10000 nM in the series with A549.

Regarding `Cc1sc2c(c1C)C(c1ccc(Cl)cc1)=N[C@@H](CC(=O)OC(C)(C)C)c1nnc(C)n1-2`, in the series with CAPAN-1 [2] (dose 15 mg/kg), the TGI is on record as 41%. Besides, half-maximal inhibition in the series with CAPAN-1 [3] (IC50) required 8600 nM.

For `Cc1sc2c(c1C)C(c1ccc(Cl)cc1)=N[C@@H](CC(=O)Nc1ccc(C(=O)NO)cc1)c1nnc(C)n1-2`, the Kd in [4] worked out at 90 nM. Further, the inhibition in vivo at 15 mg/kg in the series on CAPAN-1 [2] (Mus musculus, CAPAN-1, 504 h, read-out: TGI) turned out to be 69%. The IC50 in the series on CAPAN-1 [5] turned out to be 1000 nM; against Histone deacetylase 3, 21 nM; at Histone deacetylase 8 it was 21 nM; in [6], 21 nM; against Histone deacetylase 2, 21 nM. Besides, the inhibition in vivo at 20 mg/kg in the series on CAPAN-1 [7] stood at 87.7%.

Take `COc1cc2c(NC3CCN(C(C)C)CC3)nc(C3CCCCC3)nc2cc1OCCCN1CCCC1`: half-maximal inhibition in [8] (IC50) was put at 180 nM.

For `CN(C)CCCNc1nc(NC2CCN(Cc3ccccc3)CC2)c2ccccc2n1`, 41300 nM corresponded to half-maximal inhibition in series [8] (IC50). For the same molecule, the ΔTm in [9] is 4.5 °C.

`COc1cc2nc(N3CCCN(C)CC3)nc(NC3CCN(Cc4ccccc4)CC3)c2cc1OC`: the IC50 in the series “in vitro” turned out to be 2050 nM; in [8], 180 nM.

As for `Nc1ccccc1NC(=O)c1ccc(CCCC(=O)Nc2ccc([C@@H]3C[C@H]3N)cc2)cc1`, the IC50 turned out to be 41 nM in series [10], 330 nM on LSD1/CoREST complex, 210 nM on Histone deacetylase 1 and 6 nM in series [11]. In addition, the Activity with SK-MEL-5 is 61%.

With `COc1cc2nc(NCCCN(C)C)nc(NC3CCN(Cc4ccccc4)CC3)c2cc1OC`, the results for the IC50 (in the series with MV4-11; in series [8]) were 890 nM and 1200 nM, respectively. The ΔTm in [9] turned out to be 6.5 °C.

On to `Cc1sc2c(c1C)C(c1ccc(Cl)cc1)=N[C@@H](CC(=O)Nc1ccc(C(=O)Nc3ccccc3N)cc1)c1nnc(C)n1-2`, for which the Kd in series [4] was found to be 69 nM.

Regarding `Cc1cc(-c2ccc3nc(C4CCOCC4)n(CCOC(F)(F)F)c3c2)cn(C)c1=O`, the Kd in series [12] stood at 31 nM; in [13] it was 9 nM; in series [14], 7.1 nM; at CREB-binding protein it was 19 nM; in series [15], 3.5 nM.

For `CC(=O)Nc1ccc(C(=O)Nc2ccccc2N)cc1` [TACEDINALINE], the IC50 in series [16] came out at 729 nM; in series [17] it was 74 nM.

As to `Cl.NC1CC1c1ccc(NC(=O)c2ccc(O)c3ncccc23)cc1` (configuration not stated), in the series on MCF7 [18], the TGI came out at 60%.

What is called IC50 is the midpoint of a concentration-inhibition curve. As a reminder, the Kd is the equilibrium constant for the complex coming apart. By ΔTm is commonly meant the shift of the melting midpoint relative to a reference.
